Columns and labels:
Type in all cases: in vivo
[1] = test system: Xanthium strumarium L. (XANST); test: Pre-emergence soil-applied herbicidal mixtures for weed control (greenhouse)
Source text: (§1) Seeds or nutlets of the desired test plant species were planted in a soil matrix prepared by mixing a loam soil (e.g., 32 percent silt, 23 percent clay, and 45 percent sand, with a pH of about 6.5 and an organic matter content of about 1.9 percent) and calcareous grit in an 80 to 20 ratio. The soil matrix was contained in plastic pots with a volume of 1 quart and a surface area of 83.6 square centimeters (cm^2).
(§2) Treatments consisted of the benzyl ester of 4-amino-3-chloro-5-fluoro-6-(4-chloro-2-fluoro-3-methoxy-phenyl)pyridine-2-carboxylic acid (compound A) formulated as an SC (suspension concentrate) and various herbicidal components alone and in combination. Forms of compound A were applied on an acid equivalent basis.
(§3) Other herbicidal components were applied on an acid equivalent or active ingredient basis and included the cellulose biosynthesis inhibiting herbicides, isoxaben formulated as Gallery® 75DF and indaziflam formulated as Specticle® 20WSP.
(§4) Treatment requirements were calculated based upon the rates being tested, the concentration of active ingredient or acid equivalent in the formulation, and a 12 mL application volume at a rate of 187 L/ha.
(§5) For treatments comprised of formulated compounds, measured amounts of compounds were placed individually in 25 mL glass vials and diluted in a volume of 1.25% (v/v) Agri-Dex® crop oil concentrate (COC) to obtain 12× stock solutions. […] Application solutions were prepared by adding an appropriate amount of each stock solution (e.g., 1 mL) and diluted to the appropriate final concentrations with the addition of 10 mL of an aqueous mixture of 1.25% (v/v) COC so that the final spray solutions contained 1.25% (v/v) COC.
(§6) All stock solutions and applications solutions were visually inspected for compound compatibility prior to application. Spray solutions were applied to the soil with an overhead Mandel track sprayer equipped with a 8002E nozzles calibrated to deliver 187 L/ha over an application area of 0.503 m^2 at a spray height of 18 inches (46 cm) above average pot height. Control pots were sprayed in the same manner with the solvent blank.
(§7) The treated and control pots were placed in a greenhouse and top watered as needed. When required to ensure good germination and healthy plants, a fungicide treatment and/or other chemical or physical treatment was applied. The pots were maintained in a greenhouse with an approximate 14 hr. photoperiod which was maintained at about 29° C. during the day and 26° C. during the night. Nutrients (Peters® Excel 15-5-15 5-Ca 2-Mg) were applied in the irrigation solution as needed and water was added on a regular basis. Supplemental lighting was provided with overhead metal halide 1000-Watt lamps as necessary. After approximately 4 weeks, the condition of the test plants as compared with that of the untreated plants was determined visually and scored on a scale of 0 to 100 percent where 0 corresponds to no injury or growth inhibition and 100 corresponds to complete kill.
(§8) Colby's equation was used to determine the herbicidal effects expected from the mixtures (Colby, S. R. 1967. Calculation of the synergistic and antagonistic response of herbicide combinations. Weeds 15:20-22).
(§9) The following equation was used to calculate the expected activity of mixtures containing two active ingredients, A and B: Expected=A+B−(A×B/100)
(§10) A=observed efficacy of active ingredient A at the same concentration as used in the mixture.
(§11) B=observed efficacy of active ingredient B at the same concentration as used in the mixture.

[2] = test system: Ipomoea hederacea (L.) Jacq. (IPOHE); test: as above
Source text: as §1, §2, §3, §4, §5, §6, §7, §8, §9, §10, §11

[3] = test system: Setaria faberi Herrm. (SETFA); test: as above; conditions: Indaziflam 95 g ai/ha alone
Source text: as §1, §2, §3, §4, §5, §6, §7, §8, §9, §10, §11

[4] = test system: Brachiaria platyphylla (Griseb.) Nash or Urochloa platyphylla (Nash) R.D. Webster (BRAPP); test: Postemergence foliar-applied herbicidal mixtures, weed control in direct seeded rice (greenhouse)
Source text: (§12) Seeds or nutlets of the desired test plant species were planted in a soil matrix prepared by mixing a loam or sandy loam soil (e.g., 28.6 percent silt, 18.8 percent clay, and 52.6 percent sand, with a pH of about 5.8 and an organic matter content of about 1.8 percent) and calcareous grit in an 80 to 20 ratio. The soil matrix was contained in plastic pots with a volume of 1 quart and a surface area of 83.6 square centimeters (cm^2). When required to ensure good germination and healthy plants, a fungicide treatment and/or other chemical or physical treatment was applied. The plants were grown for 8-22 days in a greenhouse with an approximate 14 h photoperiod which was maintained at about 29° C. during the day and 26° C. during the night. Nutrients (Peters Excel® 15-5-15 5-Ca 2-Mg and iron chelate) were applied in the irrigation solution as needed and water was added on a regular basis. Supplemental lighting was provided with overhead metal halide 1000-Watt lamps as necessary. The plants were employed for testing when they reached the first through fourth true leaf stage.
(§13) Treatments consisted of the acid or esters of 4-amino-3-chloro-5-fluoro-6-(4-chloro-2-fluoro-3-methoxy-phenyl) pyridine-2-carboxylic acid (Compound A), each formulated as an SC (suspension concentrate), and various herbicidal components alone and in combination. Forms of compound A were applied on an acid equivalent basis.
(§14) Other herbicidal components were applied on an active ingredient basis and included cellulose biosynthesis-inhibiting (CBI) herbicides isoxaben formulated as Gallery® 75DF and indaziflam formulated as Specticle® 20WSP.
as §4
as §5, with “oil concentrated” for “oil concentrate (COC)”, “(v/v) crop oil concentrate” for “(v/v) COC”, “contained 1.25+/−0.05%” for “contained 1.25%”, “(v/v) crop oil concentrate.” for “(v/v) COC.”
(§15) All stock solutions and applications solutions were visually inspected for compound compatibility prior to application. Spray solutions were applied to the plant material with an overhead Mandel track sprayer equipped with a 8002E nozzles calibrated to deliver 187 L/ha over an application area of 0.503 m^2 at a spray height of 18 to 20 inches (46 to 50 cm) above average plant canopy height. Control plants were sprayed in the same manner with the solvent blank.
(§16) The treated plants and control plants were placed in a greenhouse as described above and watered by sub-irrigation to prevent wash-off of the test compounds. After approximately 3 weeks, the condition of the test plants as compared with that of the untreated plants was determined visually and scored on a scale of 0 to 100 percent where 0 corresponds to no injury or growth inhibition and 100 corresponds to complete kill.
as §8, §9, §10, §11

[5] = test system: Digitaria sanguinalis (L.) Scop. (DIGSA); test: as above
Source text: as §12, §13, §14, §4
as §5, with “oil concentrated” for “oil concentrate (COC)”, “(v/v) crop oil concentrate” for “(v/v) COC”, “contained 1.25+/−0.05%” for “contained 1.25%”, “(v/v) crop oil concentrate.” for “(v/v) COC.”
as §15, §16, §8, §9, §10, §11

[6] = test system: Leptochloa chinensis (L.) Nees (LEFCH); test: as above
Source text: as §12, §13, §14, §4
as §5, with “oil concentrated” for “oil concentrate (COC)”, “(v/v) crop oil concentrate” for “(v/v) COC”, “contained 1.25+/−0.05%” for “contained 1.25%”, “(v/v) crop oil concentrate.” for “(v/v) COC.”
as §15, §16, §8, §9, §10, §11

[7] = Compound A Acid 4.38 g ae/ha alone
[8] = Compound A Acid 5.3 g ae/ha alone
[9] = Compound A Acid 8.75 g ae/ha alone
[10] = Compound A Acid 10.6 g ae/ha alone

Row | Compound | Visual Weed Control (%) - 28 DAA XANST Obs ([1]; Indaziflam 17.5 g ai/ha alone) | Visual Weed Control (%) - 28 DAA XANST Obs ([1]; Indaziflam 70 g ai/ha alone) | Visual Weed Control (%) - 28 DAA IPOHE Obs ([2]; Indaziflam 17.5 g ai/ha alone) | Visual Weed Control (%) - 28 DAA IPOHE Obs ([2]; Indaziflam 70 g ai/ha alone) | Visual Weed Control (%) - 27 DAA SETFA Obs [3] | Visual Weed Control (%) - 21 DAA Obs ([4]; Indaziflam 21 g ai/ha alone) | Visual Weed Control (%) - 21 DAA Obs ([4]; Indaziflam 42 g ai/ha alone) | Visual Weed Control (%) - 21 DAA Obs ([5]; Indaziflam 21 g ai/ha alone) | Visual Weed Control (%) - 21 DAA Obs ([5]; Indaziflam 42 g ai/ha alone) | Visual Weed Control (%) - 21 DAA Obs ([6]; Indaziflam 42 g ai/ha alone) | Visual Weed Control (%) - 20 DAA Obs [4, 7] | Visual Weed Control (%) - 21 DAA Obs [4, 8] | Visual Weed Control (%) - 20 DAA Obs [4, 9] | Visual Weed Control (%) - 21 DAA Obs [4, 10] | Visual Weed Control (%) - 21 DAA Obs [5, 8] | Visual Weed Control (%) - 20 DAA Obs [5, 9] | Visual Weed Control (%) - 21 DAA Obs [5, 10] | Visual Weed Control (%) - 20 DAA Obs ([5]; Compound A Acid 17.5 g ae/ha alone) | Visual Weed Control (%) - 21 DAA Obs ([5]; Compound A Acid 21.2 g ae/ha alone) | Visual Weed Control (%) - 20 DAA Obs [6, 7]
1 | Cc1ccc2c(c1)[C@H](Nc1nc(N)nc(C(C)F)n1)[C@@H](C)C2 (stereo partly drawn) [Indaziflam, N-[(1R,2S)-2,3-dihydro-2,6-dimethyl-1H-inden-1-yl]-6-(1-fluoroethyl)-1,3,5-triazine-2,4-diamine, reference compound] | 25% | 45% | 40% | 40% | 70% | 0% | 15% | 50% | 45% | 70% |  |  |  |  |  |  |  |  |  | 
2 | COc1c(Cl)ccc(-c2nc(C(=O)O)c(Cl)c(N)c2F)c1F [Compound A Acid, 4-amino-3-chloro-6-(4-chloro-2-fluoro-3-methoxyphenyl)-5-fluoropyridine-2-carboxylic acid] |  |  |  |  |  |  |  |  |  |  | 75% | 60% | 80% | 85% | 20% | 45% | 30% | 50% | 35% | 15%

Source: US8901035B2, “Herbicidal compositions comprising 4-amino-3-chloro-5-fluoro-6-(4-chloro-2-fluoro-3-methoxyphenyl) pyridine-2-carboxylic acid or a derivative thereof and cellulose biosynthesis inhibitor herbicides” (Dow AgroSciences LLC, priority 2012, dated 2014)
